Assay results reported in a melting point compilation (Tetko et al.; mined from patent text by program, amines drawn as free bases though some values may be those of a salt).

SMILES	melting point [°C]
COc1cc(Nc2c(C#N)cnc3cc(-c4ccc(CN5CCC(O)CC5)cc4)sc23)c(Cl)cc1Cl	149 to 150
CCn1cnc2c(Nc3cccc(C#N)c3)nc(Cl)nc21	189
COc1ccnc(CSc2nc3cc(F)c(F)cc3[nH]2)c1C	216 to 218
CC(C)C1=Nc2ccccc2N(C)C(=O)C1N (centres undefined)	167 to 168
CCCCC[C@H]1CC[C@H](CC[C@H]2CC[C@H](C#N)CC2)CC1	56.3
NC1CC(N)(C(=O)O)C2C(C(=O)O)C12 (centres undefined)	> 275
CCc1ccc2c(c1)OC(C(F)(F)F)C(C(=O)O)=C2 (centres undefined)	167 to 169
C[C@H](NC(=O)COCCNC(=O)C12CC3CC(CC(C3)C1)C2)C(=O)N[C@H](CCC(=O)O)C(N)=O	84 to 86
O=C1c2sccc2-n2cnc(Cl)c2[C@@H]2CCCN12	180 to 183
CCN(CC)C(=O)c1nc(C)c(-c2ccncc2)s1	87.5 to 89
COC(=O)C1=C(C)NC2=C(C(=O)NCC2)C1c1ccc(F)c(Br)c1 (centres undefined)	150 to 152
CC(=O)OCC1OC(c2ccc(F)c(Cc3ccc(Cl)s3)c2)C(OC(C)=O)C(OC(C)=O)C1OC(C)=O (centres undefined)	130 to 131
O=C1c2c(Br)cccc2-n2cnc(C(=O)n3ccnc3)c2[C@@H]2CCCN12	215 to 217
CCCCc1cn(C)cc(-c2cccc(C(F)(F)F)c2)c1=O	82.5 to 84
CN(C)c1ccc(/C=C/c2c(Cl)cccc2Cl)cc1	96 to 97
Clc1cc2nc3cc4ccccc4[nH]c-3c2cc1Br	> 246
CN1CCCCc2[nH]c3ccccc3c2CC1	128 to 131
CC(C)c1c(C=CC2CC(O)CC(O)O2)n(CC2CCCCC2)c(=O)c2ccccc12 (mixture of isomers)	207 to 209
CCCCCC(=O)CCn1ccnc1	104 to 106
O=C(Nc1ccc(Cc2nnn[nH]2)cc1)C(F)(F)C(F)(F)C(F)(F)C(F)(F)F	173 to 174
O=C1CCC(=O)N1Cc1nc2sc3c(c2c(-c2ccc(Cl)cc2)c1Cl)CCNC3	230 to 231
CN(C)C=NS(=O)(=O)c1nc2ccc(O)cc2s1	195 to 198
CCc1cc(Br)cc2nc(C(=O)OC)c(C(=O)OC)c(O)c12	115 to 117
O=S(=O)(c1ccc(Cl)c2ccccc12)N1CC2CCC(CC2)C1	134 to 137
Cc1cccc(C(=O)C2CCCc3cccnc32)c1 (centres undefined)	211 to 213
NC(=O)CNc1ncccc1[N+](=O)[O-]	250 to 251
CCCCCCCCCCCCCCCCCCNC(=O)OCC(CNS(=O)(=O)CCCI)NC(C)=O (centres undefined)	101 to 102

SMILES	melting point [°C]
CC(C)(C(=O)O)c1ccc(CCl)cc1	121 to 122
COC(=O)C(C)NC(=O)c1cc2cc(Cl)ccc2[nH]1 (single isomer, unassigned; (+))	199 to 201
Cc1c(-c2ccccc2)c(N2CC[C@@H](N(C)C)C2)c2oc(C(=O)N(C)C)nc2c1C#N	67 to 70
Cc1nn(C)c(NCC(C)(C)C)c1NCc1ccc(F)cc1	32 to 39
CCSc1nn2ccccc2c1C(C)=O	84 to 85
Cc1cccc(C2CCN(C(=O)CCC(=O)c3ccc4c(c3)CCN(C(=O)C(F)(F)F)CC4)CC2)c1	128 to 129
Cc1nc2c(N)cc(C(=O)N(C)C)cc2n1C	230 to 234
O=c1cncc2ccccc2n1	213
C=C(CCC(C)C1CCC2C3=C(C(=O)CC21C)C1(C)CCC(=O)C(C)C1CC3O)C(C)C(=O)O (centres undefined)	196 to 198
N#Cc1c(F)nc2ccc([N+](=O)[O-])cc2c1F	128 to 129
COc1cc(OC)nc(Oc2cccc(F)c2C(=O)O)n1	133 to 134
Cc1ccc(NC(C)CC(=O)NC(=O)OC(C)(C)C)cc1 (centres undefined)	84 to 85
CCOC(=O)c1ncn2c1CN=C(c1ccccc1)c1cc(Cl)ccc1-2	174 to 175
C[C@@H]1Cc2cc(Cl)ccc2O[C@H]1c1ccc(Cl)cc1 (relative stereo)	135 to 137
Cn1ncc(C(=O)O)c1Cl	195 to 197
COC(=O)[C@@H]1C[C@H](OC(=O)c2cccnc2)C(=O)[C@H]2[C@@]1(C)CC[C@H]1C(=O)O[C@H](c3ccoc3)C[C@]21C	200 to 204
CN1C[C@H](CCN2CCC(O)(c3ccc(Cl)cc3)CC2)C=C2c3cccc4[nH]cc(c34)C[C@H]21	154 to 157
CNC(=O)c1sc(C(C)(C)C)cc1NC(=O)Nc1ccc(F)cc1	203 to 204
CC(C)N(CCC(CCN1CCCC1)(C(N)=O)c1ccccc1)C(C)C (centres undefined)	79 to 80
N#Cc1cccc2c1CCCC2=O	> 230
O=C1Nc2cccc(C(F)(F)F)c2C(=O)N2CCC[C@@H]12	176 to 178
O=C1CC=C(c2ccc(F)cc2)CC1	44.5 to 46.5
C[C@@H]1CNC[C@H]2Cc3c(ncc(F)c3C=NO)N21	195 to 197
CC(C)(N)Cc1ccc(NS(=O)(=O)c2ccccc2)cc1	180 to 181
CO[C@@]1(C)[C@@H](NC(=O)C(F)(F)F)CC(OC(=O)c2ccc([N+](=O)[O-])cc2)O[C@H]1C (some centres undefined)	180 to 181
COC(=O)c1c(Br)ccc2nn(C)cc12	103 to 104
CN1C(=O)C(F)N=C(c2ccccc2F)c2cc(Br)ccc21 (centres undefined)	127 to 130

The remaining lines, values ahead:

melting point [°C]	SMILES
86 to 87	O=[N+]([O-])c1oc2ccc(-c3ccc(CCO)cc3)cc2c1-c1ccccc1
244 to 247	CC(c1oc2ccccc2c(=O)c1-c1cccc(F)c1)n1nc(-c2ccc(O)cc2)c2c(N)ncnc21 (centres undefined)
122 to 124	CC(C)(O)c1ccc(CC(=O)Nc2cccnc2Oc2cccnc2)cc1
197 to 198	COC(=O)c1sc2nc(-c3ccccc3)cnc2c1N
222 to 225	CC1(c2ccccc2)C(=O)Nc2cc(Cl)cc(Cl)c2C1=O (centres undefined)
140 to 145	O=C(O)[C@H](CO)NC(=O)[C@@H]1CS[C@H](c2ccccc2O)N1C(=O)CCS
150	Cc1ccc2cc(-c3cccc4ccccc34)nc(N3CCN(C)CC3)c2c1
172 to 174	COC(=O)CC1=C(C)C(=Cc2ccc(S(=O)(=O)NC(C)=O)cc2)c2ccc(OC)cc21
192	COc1ccccc1NC(=O)Nc1nc(Oc2ccc3ccccc3c2)nc(N(CCC(=O)O)Cc2ccc(C(F)(F)F)cc2C(F)(F)F)n1
199 to 201	COc1ccc(C=C2C(=O)c3cc(O)ccc3OC2c2ccc(OC)cc2)cc1 (centres undefined)
136 to 137	CC(C)Oc1ccc(C(=O)c2ccc([N+](=O)[O-])cc2)cc1
51 to 53	CCN(CC)C(=O)Oc1ccc2ccccc2c1
171 to 172	Cc1cc(=O)[nH]c2ccc(OCCCN3CCN(Cc4ccc(C(C)(C)C)cc4)CC3)cc12
114	COc1ccc2ccc(N3C(=O)c4ccccc4C3OC(=O)COCC(C)C)nc2n1 (centres undefined)
84 to 86.5	CC(=O)OCc1cccc(-n2cccc2)c1Br
246 to 248	CC(C)n1nc(-c2sc(NC(=O)c3ccc(CN(C)C)cc3)nc2-c2ccccc2)ccc1=O
167 to 170	O=C(O)CN1C(=O)SC(=Cc2ccc(OCc3ccccc3)c(OCc3ccccc3)c2)C1=O
> 120	CCCCc1nc(CO)c(C(=O)N2CCC[C@H]2C(=O)OC)n1Cc1ccc(-c2ccccc2C(=O)O)cc1
99 to 103	O=C(Cc1ccc(Cl)c(Cl)c1)c1ccc(Cl)cc1
150 to 153	O=CCC(=O)Nc1ccccc1
181 to 184	Cc1c(-c2ccc(F)cc2)n(Cc2ccc(OCCN3CCCCCC3)cc2)c2ccc(O)cc12
268 to 270	CCC(c1oc2ccccc2c(=O)c1-c1cccc(F)c1)n1nc(-c2ccc3c(C)n[nH]c3c2)c2c(N)ncnc21 (centres undefined)
190 to 192	CCOc1ccc(S(C)(=O)=O)cc1C(=O)Nc1c(C(N)=O)nn(CCOC)c1CC

melting point [°C]	SMILES
131 to 133	O=C(NCCCc1cccs1)n1cc(F)c(=O)[nH]c1=O
95	O=C(Nc1ccc2ccc(Oc3ccccc3)nc2n1)c1ccsc1
121 to 122	COc1ccc(Nc2nccc(-c3cccnc3)n2)cc1
256 to 258	Cn1cc(C2=C(c3cn(CCC(=O)O)c4ccccc34)C(=O)NC2=O)c2ccccc21
262 to 264	COc1ccc(-c2cc3cc(C4=NNC(=O)CC4)ccc3[nH]2)cc1
150 to 152	COC(=O)C1=C(C)Nc2ccccc2SC1c1ccc([N+](=O)[O-])cc1 (centres undefined)
139 to 140	Cc1nnc(-c2ccc3occ(-c4ccc(OS(C)(=O)=O)cc4)c3c2)o1
98.3 to 100	CC(C)(C)OC(=O)N[C@@H](Cc1ccc(-c2ccccc2)cc1)C(=O)OCc1ccccc1
235 to 238	Nc1ccccc1S(=O)(=O)c1cc(C(=O)O)ccc1Cl
65 to 66	COc1cc(N)c2nccc(C)c2c1OCCCCCc1ccccc1
124 to 125	CC(=O)OC1C(N(C)S(C)(=O)=O)c2cc(OCc3ccccc3)ccc2OC1(C)C (centres undefined)
70 to 71	CC(C)C/C(=C/CCNC(=O)OCc1ccccc1)C(=O)O
155	COc1ccc(C2=NN(Cc3ccc([N+](=O)[O-])cc3)C(=O)SC2)cc1OC
204 to 206	CSc1cc(C)nc(SC)c1NC(=O)CC=CC1=C(c2ccccc2)c2ccccc2OC1
151 to 153	O=C1NC(=Cc2c[nH]c3ccccc23)C(=O)N1Cc1cc(C(F)(F)F)cc(C(F)(F)F)c1
203 to 205	NS(=O)(=O)c1cc(CCNC(=O)/C=C/c2cccs2)ccc1OCCOC(F)(F)F
93 to 96	O=C(O)CNC(=O)CCCCc1ccccc1
119 to 122	CCCCc1nn(-c2cc(NC(=O)CC)ccc2C(F)(F)F)c(=O)n1Cc1ccc(-c2ccccc2S(=O)(=O)NC(=O)c2ccccc2F)cc1F
90 to 92	COc1ccccc1CS(=O)(=O)Cc1ccccc1OC
149 to 151	COCc1c(C(=O)OC(C)C)ncc2[nH]c3ccc(CCc4ccc(Cl)cc4)cc3c12
130	CCOC(=O)c1cnc2ccc(-c3ccc(Cl)cc3)cn12
158	COc1ccc(CN(C(=O)C2CCCc3c(O)cccc32)c2ccc(C(C)C)cc2)cn1 (centres undefined)
